Holding throughout (assay): NCI anticancer screen, dose series, 48 h
Assay [1] relates to SW-620 colon.
The subject of assay [2] is MDA-N.
Assay [3] concerns ACHN renal.
The subject of assay [4] is CCRF-CEM leukemia.
Assay [5] has as its system SK-MEL-5 melanoma.
For assay [6], the system named is COLO 205 colon.
Assay [7] deals with DU-145 prostate.
Assay [8] relates to HCT-116 colon.
In assay [9] the test system is NCI-H522 lung.

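A five-concentration, 48-hour dose response in 96-well plates underlies each endpoint, interpolated linearly between surrounding concentrations. The concentration for 50% growth inhibition is given as GI50. TGI: total growth inhibition.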

For the compound `N#Cc1nc(C2CCC(=O)O2)oc1N` (configuration not stated), the TGI in assay [1], in assay [2], in assay [3], in [4], in assay [5] and in [6] was more than 100 µM in each case. Further, the TGI in [7] and in assay [8] was more than 100 µM throughout.
For the compound `C=C1C[C@@H]2CC[C@@]34C[C@H]5O[C@H]6[C@@H](O3)[C@H]3O[C@H](CC[C@@H]3O[C@H]6[C@H]5O4)CC(=O)C[C@@H]3[C@@H](OC)[C@@H](C[C@H](O)CN)O[C@H]3C[C@H]3O[C@@H](CC[C@@H]1O2)C[C@@H](C)C3=C`, the TGI is 0.0412 µM in assay [9]; more than 1 µM in assay [1]; 0.000354 µM in assay [2]; more than 1 µM in [3]; 0.043 µM in assay [5]; 0.00193 µM in [6]. Besides, the results for the TGI in assay [7] and in assay [8] were 0.0241 µM and 0.101 µM, respectively. For the same compound, the GI50 in assay [2] was 0.0001 µM.
Regarding `O=C1CS/C(=N/N=C/c2cn(Cc3ccc(Cl)cc3Cl)c3ccccc23)N1`, the TGI in [9] was more than 100 µM; in assay [1], more than 100 µM; in assay [3], more than 100 µM; in [4], 56.4 µM; in [5], more than 100 µM; in assay [6] it was more than 100 µM. In addition, the TGI in assay [7] and in assay [8] was more than 100 µM each time.
With `O=C1CC(c2ccccc2Cl)C2(C(=O)NC(=O)NC2=O)C(c2ccccc2Cl)C1` (configuration not stated), the TGI in assay [9], in [1], in [2], in [3], in assay [4] and in assay [5] was more than 100 µM each time. Also, the TGI in assay [7] and in [8] was more than 100 µM in each case.
Consider `Cc1cc(OCc2nnc3sc(NC(=O)c4ccccc4)nn23)ccc1Cl`, for which the TGI in assay [9] was 61 µM; in assay [1] it was more than 100 µM; in assay [3] it was 42.9 µM; in assay [4], more than 100 µM; in assay [5], more than 100 µM; in [6], more than 100 µM. The TGI in assay [7] was 58.4 µM; in [8], more than 100 µM.
For the compound `CCN(CCCCCCCCCCN1CC(=O)N(CCCCCCCCCCN(CC)Cc2ccccc2OC)CC1=O)Cc1ccccc1OC`, the GI50 was 1.75 µM in assay [1]; 2.36 µM in [3]; 2.11 µM in assay [4]; 1.36 µM in [5]; 1.05 µM in assay [6]; 1.39 µM in assay [7]. The TGI worked out at 3.95 µM in assay [1]; 6.82 µM in assay [3]; 10.1 µM in [4]; 2.7 µM in assay [5]; 2.52 µM in [6]; 2.78 µM in [7].
Turning to `Cc1cn(CCCCCOC(=O)NC(CCCNC(N)=O)C(=O)O)c(=O)[nH]c1=O` (configuration not stated), the TGI in [1], in assay [2], in assay [3], in [4], in assay [6] and in assay [7] was more than 100 µM throughout. The same compound gave a TGI in assay [8] of more than 100 µM.
As to `O=C1N/N=C\c2ccc(cc2)OCc2cccc(n2)COc2ccc(cc2)/C=N\NC1=O`, the TGI in [9], in assay [1], in assay [2], in assay [3], in assay [4] and in assay [6] was more than 25 µM throughout. In addition, the TGI in assay [7] and in assay [8] was more than 25 µM each time.
Regarding `CC1CCc2sc3nc4n(c(=O)c3c2C1)CC(C)S4` (configuration not stated), the TGI in [9] was more than 100 µM; in assay [1], more than 100 µM; in [2], 92.8 µM; in [3], 62.2 µM; in assay [5], 34.4 µM; in assay [6], 39.3 µM. Also, the figures for the TGI in assay [7] and in assay [8] were more than 100 µM and 67.7 µM, respectively.
On to `Cc1cccc(NS(=O)(=O)c2ccc(N=Nc3c(O)c(C(=O)O)cc4ccccc34)cc2)n1`, for which the TGI in [9], in [1], in assay [3], in [4], in [5] and in assay [6] was more than 100 µM each time. The same compound showed a TGI in [8] of more than 100 µM.
As for `C=C(C)[C@H]1CC(=O)/C(C)=C\CC/C(C)=C/CC[C@@]2(C)O[C@@H]2C1`, the TGI was more than 100 µM in [1]; 94.4 µM in assay [2]; 87.3 µM in assay [3]; more than 100 µM in assay [4]; 45.5 µM in assay [5]; 32 µM in assay [6]. Further, the TGI in [7] stood at 33.4 µM; in assay [8], 32.8 µM.
Take `CN(C)CCCNc1cc(O)c2c(c1O)C(=O)c1ccccc1C2=O`: the TGI in assay [9] came out at 40.7 µM; in assay [1], 21.7 µM; in assay [2] it was 27.4 µM; in assay [3], 27.5 µM; in assay [5] it was 26.5 µM; in [6], 24.5 µM. The TGI came to 28 µM in [7] and 18.4 µM in assay [8].
For the compound `O=c1c(-c2ccccc2)c(SCCN2CCCCCC2)n(-c2ccccc2)c(=S)n1-c1ccccc1`, the TGI in assay [9] is more than 100 µM; in assay [1] it was more than 100 µM; in assay [3] it was more than 100 µM; in [4], 29.4 µM; in assay [5] it was more than 100 µM; in assay [6] it was more than 100 µM. This compound also showed a TGI in assay [7] of 66.1 µM.
On to `CCOc1snc(C(Cl)(Cl)Cl)c1Cl`, for which the TGI in [1] is more than 100 µM; in [2], more than 100 µM; in assay [3], more than 100 µM; in [4], 54.5 µM; in assay [5], 21.1 µM; in assay [6], 48.4 µM. Besides, the TGI was more than 100 µM in assay [7] and 89.2 µM in assay [8].
Turning to `COc1ccc(OC/C(N=Cc2ccncc2)=N/NC(=O)c2ccncc2)cc1`, the TGI in [9] is more than 100 µM; in assay [1], more than 100 µM; in assay [2] it was 39.8 µM; in [3] it was more than 100 µM; in assay [4] it was more than 100 µM; in assay [6] it was more than 100 µM. Further, the TGI in assay [7] and in assay [8] was more than 100 µM in each case.

The values above are taken from PubChem BioAssay (NCI).
